# How the values were obtained:
# [1] = system: southern armyworm, cotton aphid, tobacco budworm and greenbug; experiment: Systemic tests (soil drench / root uptake, systemic evaluation); format: in vivo
# Experimental: For southern root-knot nematode and systemic tests for southern armyworm, cotton aphid, tobacco budworm and greenbug, a stock solution or suspension was prepared by adding 15 mg of the test compound to 250 mg of dimethylformamide, 1250 mg of acetone and 3 mg of the emulsifier blend referenced above. Water was then added to provide a test compound concentration of 150 ppm. When necessary, sonication was provided to insure complete dispersion.
# Southern armyworm on tomato—systemic evaluation: This test was conducted in conjunction with the southern root-knot nematode evaluation (discussed below). The tomato plants, grown in the soil (at an initial compound test screening rate of 6.6 ppm soil concentration or about 150 ppm solution concentration) for nematode evaluation, were then utilized for evaluation of a compound's uptake via roots and subsequent systemic transport to the tomato foliage. […]
# Cotton aphid and tobacco budworm (on cotton) and greenbug and tobacco budworm (on sorghum)—systemic evaluation: A 7.0 ml aliquot of the 150 ppm nematode test solution was applied to deliver the equivalent of 10.0 ppm soil concentration dose as a drench to 6 cm pots containing cotton and sorghum plants. […] Again at six days, the plants were rated for aphid activity and the cotton aphids and greenbugs were counted and mortality was assessed. […] Mortality was assessed six days after infestation. […]
# Lucilia sericata = details: single species; from WO 92/13451 (Schering Agrochemicals Ltd.); cited from earlier work
Substance,activity in the systemic tests [1],activity against Lucilia sericata (Lucilia sericata)
"5-Amino-1-[2,6-dichloro-4-(trifluoromethyl)phenyl]-4-methylsulfinyl-N-hydroxy-N-methyl-1H-pyrazole carboximidamide [Compound 1]",particularly good activity,–
"5-Amino-1-[2,6-dichloro-4-(trifluoromethyl)phenyl]-4-trifluoromethylsulfinyl-N-hydroxy-N-methyl-1H-pyrazole carboximidamide [Compound 2]",particularly good activity,–
"5-chloro-1-[2,6-dichloro-4-(trifluoromethyl)phenyl]-4-(4,5-1H-pyrazole",–,activity against a single species Lucilia sericata

# — patent publication US6432997B1, “Pyrazole pesticides” (Rhone-Poulenc, Inc., priority 1997, dated 2002)
